5 molecules from PMC8079033, “Design, synthesis, anticancer evaluation, and molecular modelling studies of novel tolmetin derivatives as potential VEGFR-2 inhibitors and apoptosis inducers” (Journal of Enzyme Inhibition and Medicinal Chemistry, 2021) can be followed below.

The test system of data set [1] is SK-MEL-2. Description: NCI 60-cell line one-dose antiproliferative screen (SRB). It is filed as cell-based. Particulars: Homo sapiens, read-out: growth inhibition % (GI%). In a few lines: (§1)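 Single dose 10 µM; 48 h exposure, 37 °C/5% CO2, after 24 h preincubation. TCA fix, SRB stain, A515. % growth vs untreated control and time-zero plates, reported as GI%.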
For data set [2], the system named is SK-OV-3. The data set is described as above. Particulars: Homo sapiens, read-out: growth inhibition % (GI%). It counts as cell-based. In a few lines: as §1
The test system of data set [3] is KM12. The data set is described as above. It counts as cell-based. As to conditions: Homo sapiens, read-out: growth inhibition % (GI%). In outline:
as §1

Data set [4] concerns HS 578 T. Described as above. It counts as cell-based. As to conditions: Homo sapiens, read-out: growth inhibition % (GI%). In a few lines:
as §1

Data set [5] concerns SF-539. Described as above. It counts as cell-based. Particulars: Homo sapiens, read-out: growth inhibition % (GI%). In outline: as §1
Data set [6] deals with A549/ATCC. Described as above. It is filed as cell-based. As to conditions: Homo sapiens, read-out: growth inhibition % (GI%). In a few lines: as §1
Data set [7] deals with EKVX. The data set is described as above. It counts as cell-based. As to conditions: Homo sapiens, read-out: growth inhibition % (GI%). In outline:
as §1

The subject of data set [8] is MDA-MB-468. Described as above. It counts as cell-based. As to conditions: Homo sapiens, read-out: growth inhibition % (GI%). In outline:
as §1

Data set [9] has as its system K-562. Described as above. It is filed as cell-based. Particulars: Homo sapiens, K562, read-out: growth inhibition % (GI%). In a few lines: as §1
Data set [10] relates to SF-295. Described as above. As to conditions: Homo sapiens, read-out: growth inhibition % (GI%). It is filed as cell-based. In outline:
as §1

Data set [11] has as its system NCI-H226. Described as above. It is filed as cell-based. As to conditions: Homo sapiens, read-out: growth inhibition % (GI%). In a few lines: as §1
For data set [12], the system named is SN 12 C. The data set is described as above. It is filed as cell-based. As to conditions: Homo sapiens, SN12C, read-out: growth inhibition % (GI%). In a few lines: as §1
Data set [13] concerns HL-60 (TB). The data set is described as above. It counts as cell-based. As to conditions: Homo sapiens, read-out: growth inhibition % (GI%). In outline: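 A 48 h, 10 µM exposure is scored by SRB protein dye. Percent growth accounts for starting cell density, allowing lethality as well as cytostasis to be detected.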
Data set [14] deals with DU-145. The description is as above. Particulars: Homo sapiens, read-out: growth inhibition % (GI%). It is filed as cell-based. In outline: as §1
The subject of data set [15] is MDA-MB-435. The data set is described as above. It counts as cell-based. Particulars: Homo sapiens, read-out: growth inhibition % (GI%). In outline: as §1
The subject of data set [16] is MOLT-4. The description is as above. It counts as cell-based. As to conditions: Homo sapiens, read-out: growth inhibition % (GI%). In outline: as §1
Data set [17] has as its system OVCAR-3. The description is as above. As to conditions: Homo sapiens, read-out: growth inhibition % (GI%). It is filed as cell-based. In a few lines: as §1
In data set [18] the test system is UACC-257. The data set is described as above. It counts as cell-based. Particulars: Homo sapiens, read-out: growth inhibition % (GI%). In outline:
as §1

Data set [19] deals with SR. Described as above. Particulars: Homo sapiens, read-out: growth inhibition % (GI%). It counts as cell-based. In a few lines:
as §1

Data set [20] concerns MALME-3M. Described as above. It is filed as cell-based. As to conditions: Homo sapiens, read-out: growth inhibition % (GI%). In outline:
as §1

The subject of data set [21] is HOP-92. Described as above. As to conditions: Homo sapiens, read-out: growth inhibition % (GI%). It counts as cell-based. In a few lines: as §1
Data set [22] concerns HCC-2998. The description is as above. It counts as cell-based. As to conditions: Homo sapiens, read-out: growth inhibition % (GI%). In a few lines: as §1
Data set [23] concerns SK-MEL-28. Described as above. It is filed as cell-based. As to conditions: Homo sapiens, read-out: growth inhibition % (GI%). In a few lines:
as §1

Data set [24] relates to TK-10. The description is as above. It is filed as cell-based. Particulars: Homo sapiens, read-out: growth inhibition % (GI%). In a few lines:
as §1

Data set [25] concerns Colo 205. Described as above. As to conditions: Homo sapiens, read-out: growth inhibition % (GI%). It counts as cell-based. In outline:
as §1

The subject of data set [26] is HT29. The data set is described as above. It counts as cell-based. As to conditions: Homo sapiens, HT-29, read-out: growth inhibition % (GI%). In outline:
as §1

For orientation: melting point means the temperature, or range, at which the solid turns liquid. Broadly, the inhibition is how much of the control response was suppressed. As for `Cc1ccc(C(=O)c2ccc(CC(=O)NN3C(=O)C=CC3=O)n2C)cc1` [Compound 7b, N-(2,5-Dioxo-2,5-dihydro-1H-pyrrol-1-yl)-2–(1-methyl-5–(4-methylbenzoyl)-1H-pyrrol-2-yl)acetamide], the melting point lay in the range of 193 to 195 °C. Further, the inhibition at 10 µM in [1] is below 10%. Also, the inhibition at 10 µM in [2] was below 10%. The inhibition at 10 µM in data set [3] is below 10%. Also, in [4], the inhibition at 10 µM is below 10%. In addition, in data set [5], the inhibition at 10 µM is below 10%. Further, the inhibition at 10 µM in data set [6] amounted to 12.8%. The inhibition at 10 µM in [7] stood at 25.7%. Further, the inhibition at 10 µM in [8] is below 10%. For the same molecule, the inhibition at 10 µM in [9] worked out at 16.5%. Also, the inhibition at 10 µM in data set [10] is below 10%. In addition, the inhibition at 10 µM in data set [11] turned out to be 22.1%. Also, the inhibition at 10 µM in data set [12] stood at 14.8%. Also, the inhibition at 10 µM in data set [13] was determined as 10.6%. Moreover, the inhibition at 10 µM in [14] is below 10%. Moreover, in data set [15], the inhibition at 10 µM is below 10%. Moreover, the inhibition at 10 µM in data set [16] came out at 14%.
For the molecule `Cc1ccc(C(=O)c2ccc(CC(=O)NN=Cc3ccccc3O)n2C)cc1` [Compound 5a, N′-(2-Hydroxybenzylidene)-2–(1-methyl-5–(4-methylbenzoyl)-1H-pyrrol-2-yl)aceto hydrazide], the melting point was in the range of 222 to 224 °C. Moreover, the inhibition at 10 µM in data set [1] came out at 10.4%. The inhibition at 10 µM in [17] amounted to 19.7%. In data set [2], the inhibition at 10 µM is below 10%. Moreover, the inhibition at 10 µM in data set [18] is below 10%. For the same molecule, the inhibition at 10 µM in data set [3] amounted to 19.6%. Moreover, the inhibition at 10 µM in data set [19] was 43.8%. In addition, in data set [5], the inhibition at 10 µM amounted to 10.9%. Also, the inhibition at 10 µM in data set [6] is 13.9%. Besides, the inhibition at 10 µM in data set [7] amounted to 17.3%. Also, the inhibition at 10 µM in data set [8] turned out to be 18.9%. Moreover, the inhibition at 10 µM in data set [20] is below 10%. Besides, the inhibition at 10 µM in data set [9] was 15.8%. Further, in [10], the inhibition at 10 µM was below 10%. Also, the inhibition at 10 µM in data set [11] is below 10%. Moreover, the inhibition at 10 µM in data set [12] worked out at 10.2%. The inhibition at 10 µM in data set [13] came to 13%. Also, the inhibition at 10 µM in data set [21] was below 10%. In data set [14], the inhibition at 10 µM came to 10.4%. Moreover, in data set [22], the inhibition at 10 µM is below 10%. In addition, the inhibition at 10 µM in data set [23] was 15.7%. Also, the inhibition at 10 µM in [24] was determined as 14.9%. Besides, the inhibition at 10 µM in data set [15] was 16.8%. Moreover, in data set [16], the inhibition at 10 µM stood at 26%.
`Cc1ccc(C(=O)c2ccc(CC(=O)NNC(=O)Nc3ccc(Cl)c(C(F)(F)F)c3)n2C)cc1` [Compound 8c, N-(4-Chloro-3-(trifluoromethyl)phenyl)-2–(2-(1-methyl-5–(4-methylbenzoyl)-1H-pyrrol-2-yl)acetyl)hydrazinecarboxamide] registered a melting point of 171 to 173 °C. Moreover, the inhibition at 10 µM in [25] was below 10%. For the same molecule, the inhibition at 10 µM in [26] was below 10%. In addition, the inhibition at 10 µM in [18] worked out at 22.9%. In addition, the inhibition at 10 µM in data set [3] was below 10%. Further, the inhibition at 10 µM in [4] was determined as 11.9%. The inhibition at 10 µM in [19] was below 10%. The inhibition at 10 µM in data set [5] is below 10%. The inhibition at 10 µM in data set [6] stood at 21.7%. Further, the inhibition at 10 µM in data set [7] is below 10%. In [8], the inhibition at 10 µM was 17.5%. The inhibition at 10 µM in data set [20] was below 10%. Also, the inhibition at 10 µM in data set [9] is below 10%. Besides, the inhibition at 10 µM in data set [10] was below 10%. Also, the inhibition at 10 µM in data set [11] was below 10%. The inhibition at 10 µM in data set [12] came out at 10.5%. The inhibition at 10 µM in data set [21] was found to be 13.5%. In [14], the inhibition at 10 µM was below 10%. In addition, the inhibition at 10 µM in [15] came to 20.7%. For the same molecule, the inhibition at 10 µM in data set [16] is 19.2%.
Consider `Cc1ccc(C(=O)c2ccc(CC(=O)NN=Cc3c[nH]c4ccccc34)n2C)cc1` [Compound 5f, N′-((1H-Indol-3-yl)methylene)-2–(1-methyl-5–(4-methylbenzoyl)-1H-pyrrol-2-yl) acetohydrazide], for which the melting point lay within 168 to 170 °C. The inhibition at 10 µM in data set [17] was below 10%. For the same molecule, in data set [4], the inhibition at 10 µM was below 10%. For the same molecule, in data set [19], the inhibition at 10 µM came to 11.2%. Besides, the inhibition at 10 µM in data set [5] is below 10%. The inhibition at 10 µM in [6] is 15.4%. Moreover, the inhibition at 10 µM in data set [7] stood at 17.7%. In addition, in data set [8], the inhibition at 10 µM was found to be 16.8%. The inhibition at 10 µM in data set [20] amounted to 19.3%. The inhibition at 10 µM in data set [9] is below 10%. Moreover, the inhibition at 10 µM in data set [10] is below 10%. Moreover, in [11], the inhibition at 10 µM is below 10%. The inhibition at 10 µM in data set [12] was below 10%. Moreover, the inhibition at 10 µM in [13] worked out at 27%. Also, in data set [21], the inhibition at 10 µM was below 10%. Moreover, the inhibition at 10 µM in data set [15] is below 10%. In addition, in data set [16], the inhibition at 10 µM is 16.5%.
`Cc1ccc(C(=O)c2ccc(CC(=O)NN3C(=O)CCC3=O)n2C)cc1` [Compound 7a, N-(2,5-Dioxopyrrolidin-1-yl)-2–(1-methyl-5–(4-methylbenzoyl)-1H-pyrrol-2-yl) acetamide] gave a melting point above 300 °C. In addition, the inhibition at 10 µM in data set [1] was below 10%. Moreover, the inhibition at 10 µM in data set [2] is 14%. The inhibition at 10 µM in data set [26] is below 10%. For the same molecule, in [5], the inhibition at 10 µM was below 10%. Further, the inhibition at 10 µM in data set [6] came out at 11.1%. Further, the inhibition at 10 µM in [7] was 23.9%. For the same molecule, the inhibition at 10 µM in data set [8] is below 10%. Moreover, the inhibition at 10 µM in data set [9] was 11.2%. The inhibition at 10 µM in data set [10] is below 10%. Further, the inhibition at 10 µM in data set [11] worked out at 22.6%. Also, the inhibition at 10 µM in data set [12] turned out to be 19.1%. For the same molecule, the inhibition at 10 µM in data set [13] was below 10%. Moreover, the inhibition at 10 µM in data set [21] came out at 19.2%. Further, in data set [15], the inhibition at 10 µM was below 10%. For the same molecule, in data set [16], the inhibition at 10 µM is below 10%.
